Results as given in ChEMBL document CHEMBL1148579, “Influence of various central moieties on the hypolipidemic properties of long hydrocarbon chain diols and diacids” (J Med Chem, 2006).

Tests used:
Rattus norvegicus [1] = test: Activity against non high density lipoprotein cholesterol level in obese female Zucker rat serum after 1 week at 100 mg/kg (percent change from pre-treatment); assay type: functional
Rattus norvegicus [2] = test: Activity against triglyceride level in obese female Zucker rat serum after 1 week at 100 mg/kg (percent change from pre-treatment); assay type: functional
Rattus norvegicus [3] = test: Activity against high density lipoprotein cholesterol level in obese female Zucker rat serum after 2 weeks at 100 mg/kg (percent change from pre-treatment); assay type: functional
Hepatocyte = test: Inhibition of lipid synthesis in primary rat hepatocytes by incorporation radiolabeled acetate into cellular lipids; assay type: functional, cell-based, Sprague-Dawley
Rattus norvegicus [4] = test: Activity against high density lipoprotein cholesterol level in obese female Zucker rat serum after 1 week at 100 mg/kg (percent change from pre-treatment); assay type: functional
Rattus norvegicus [5] = test: Activity against non high density lipoprotein cholesterol level in obese female Zucker rat serum after 2 weeks at 100 mg/kg (percent change from pre-treatment); assay type: functional
Rattus norvegicus [6] = test: Activity against triglyceride level in obese female Zucker rat serum after 2 weeks at 100 mg/kg (percent change from pre-treatment); assay type: functional
Rattus norvegicus [7] = test: Activity against high density lipoprotein cholesterol level in obese female Zucker rat serum after 1 week at 30 mg/kg (percent change from pre-treatment); assay type: functional
Rattus norvegicus [8] = test: Activity against non high density lipoprotein cholesterol level in obese female Zucker rat serum after 2 weeks at 30 mg/kg (percent change from pre-treatment); assay type: functional
Rattus norvegicus [9] = test: Activity against triglyceride level in obese female Zucker rat serum after 1 week at 30 mg/kg (percent change from pre-treatment); assay type: functional
Rattus norvegicus [10] = test: Activity against non high density lipoprotein cholesterol level in obese female Zucker rat serum after 1 week at 30 mg/kg (percent change from pre-treatment); assay type: functional
Rattus norvegicus [11] = test: Activity against triglyceride level in obese female Zucker rat serum after 2 weeks at 30 mg/kg (percent change from pre-treatment); assay type: functional
Rattus norvegicus [12] = test: Activity against high density lipoprotein cholesterol level in obese female Zucker rat serum after 2 weeks at 30 mg/kg (percent change from pre-treatment); assay type: functional
Rattus norvegicus [13] = test: Activity against non high density lipoprotein cholesterol level in obese female Zucker rat serum after 1 week at 53 mg/kg (percent change from pre-treatment); assay type: functional
Rattus norvegicus [14] = test: Activity against high density lipoprotein cholesterol level in obese female Zucker rat serum after 2 weeks at 53 mg/kg (percent change from pre-treatment); assay type: functional
Rattus norvegicus [15] = test: Activity against triglyceride level in obese female Zucker rat serum after 2 weeks at 53 mg/kg (percent change from pre-treatment); assay type: functional
Rattus norvegicus [16] = test: Activity against high density lipoprotein cholesterol level in obese female Zucker rat serum after 1 week at 53 mg/kg (percent change from pre-treatment); assay type: functional
Rattus norvegicus [17] = test: Activity against non high density lipoprotein cholesterol level in obese female Zucker rat serum after 2 weeks at 53 mg/kg (percent change from pre-treatment); assay type: functional
Rattus norvegicus [18] = test: Activity against triglyceride level in obese female Zucker rat serum after 1 week at 53 mg/kg (percent change from pre-treatment); assay type: functional
Rattus norvegicus [19] = test: Activity against high density lipoprotein cholesterol level in obese female Zucker rat serum after 1 week at 80 mg/kg (percent change from pre-treatment); assay type: functional
Rattus norvegicus [20] = test: Activity against high density lipoprotein cholesterol level in obese female Zucker rat serum after 2 weeks at 80 mg/kg (percent change from pre-treatment); assay type: functional
Rattus norvegicus [21] = test: Activity against triglyceride level in obese female Zucker rat serum after 2 weeks at 80 mg/kg (percent change from pre-treatment); assay type: functional
Rattus norvegicus [22] = test: Activity against non high density lipoprotein cholesterol level in obese female Zucker rat serum after 2 weeks at 80 mg/kg (percent change from pre-treatment); assay type: functional
Rattus norvegicus [23] = test: Activity against triglyceride level in obese female Zucker rat serum after 1 week at 80 mg/kg (percent change from pre-treatment); assay type: functional
Rattus norvegicus [24] = test: Activity against non high density lipoprotein cholesterol level in obese female Zucker rat serum after 1 week at 80 mg/kg (percent change from pre-treatment); assay type: functional
[25] = Rattus norvegicus, Sprague-Dawley, Hepatocyte, read-out: IC50

Structure (SMILES)	Activity (Rattus norvegicus [1])	Activity (Rattus norvegicus [2])	Activity (Rattus norvegicus [3])	IC50 (Hepatocyte; [25])	Activity (Rattus norvegicus [4])	Activity (Rattus norvegicus [5])	Activity (Rattus norvegicus [6])	other results
CC(C)(CO)CCCCS(=O)(=O)CCCCC(C)(C)CO	-46%	-34%	-13%	8.9 µM	15%	-34%	-19%	
CC(=O)C(CCCCC(C)(C)CO)CCCCC(C)(C)CO				46 µM				Activity (Rattus norvegicus [7]): -14%; Activity (Rattus norvegicus [8]): 52%; Activity (Rattus norvegicus [9]): -6%; Activity (Rattus norvegicus [10]): 15%; Activity (Rattus norvegicus [11]): 22%; Activity (Rattus norvegicus [12]): -19%
CC(C)(CO)CCCC[S+]([O-])CCCCC(C)(C)CO	56%	-37%	233%		127%	64%	-35%	IC50 (Hepatocyte; hepatocyte): Not Active
CC(C)(CO)CCCCC(O)CCCCC(C)(C)CO	-61%	-70%	222%	6.4 µM	219%	-15%	-46%	
CC(C)(CO)CCCSCCCC(C)(C)CO				15 µM				Activity (Rattus norvegicus [7]): 54%; Activity (Rattus norvegicus [8]): -14%; Activity (Rattus norvegicus [9]): -51%; Activity (Rattus norvegicus [10]): -40%; Activity (Rattus norvegicus [11]): -34%; Activity (Rattus norvegicus [12]): 40%
CC(C)(CO)CCCCNC(=O)NCCCCC(C)(C)CO	-33%	-42%	92%	3.4 µM	66%	-5%	-31%	
CC(CCCCSCCCCC(C)(C(=O)O)c1ccccc1)(C(=O)O)c1ccccc1 (centres undefined)				26 µM				
CC(C)(CO)CCCCNCCCCC(C)(C)CO								Activity (Rattus norvegicus [13]): 78%; Activity (Rattus norvegicus [14]): 16%; Activity (Rattus norvegicus [15]): -32%; IC50 (Hepatocyte; hepatocyte): Not Active; Activity (Rattus norvegicus [16]): -23%; Activity (Rattus norvegicus [17]): -10%; Activity (Rattus norvegicus [18]): -24%
CC(CO)(CCCCSCCCCC(C)(CO)c1ccccc1)c1ccccc1 (centres undefined)				64 µM				
CC(CO)(CCCC[S+]([O-])CCCCC(C)(CO)c1ccccc1)c1ccccc1 (centres undefined)				81 µM				
CC(C)(CO)CCCCOP(=O)(O)OCCCCC(C)(C)CO								Activity (Rattus norvegicus [19]): 27%; Activity (Rattus norvegicus [20]): 8%; IC50 (Hepatocyte; hepatocyte): Not Active; Activity (Rattus norvegicus [21]): -13%; Activity (Rattus norvegicus [22]): -17%; Activity (Rattus norvegicus [23]): -10%; Activity (Rattus norvegicus [24]): -29%
